Laboratory results: ChEMBL document CHEMBL1201862, “PubChem BioAssay data set” (2004)
Activity calls are given as the source filed them. Cut-off read from the data, not from the text of the source, for most assays here: actives have a measured EC50 and inactives only a lower limit.

Legend:
[1] = target: Tyrosine-protein kinase receptor TYRO3 (Homo sapiens, UniProt Q06418); format: functional;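 note: TYRO3 value obtained as one member of a kinome-wide profiling panel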
[2] = target: Cyclin-dependent kinase 8 (Homo sapiens, UniProt P49336); assay: Navigating the Kinome. Panel member name: CDK8; format: functional
Cyclin-dependent kinase 8, sequence (P49336 whole entry): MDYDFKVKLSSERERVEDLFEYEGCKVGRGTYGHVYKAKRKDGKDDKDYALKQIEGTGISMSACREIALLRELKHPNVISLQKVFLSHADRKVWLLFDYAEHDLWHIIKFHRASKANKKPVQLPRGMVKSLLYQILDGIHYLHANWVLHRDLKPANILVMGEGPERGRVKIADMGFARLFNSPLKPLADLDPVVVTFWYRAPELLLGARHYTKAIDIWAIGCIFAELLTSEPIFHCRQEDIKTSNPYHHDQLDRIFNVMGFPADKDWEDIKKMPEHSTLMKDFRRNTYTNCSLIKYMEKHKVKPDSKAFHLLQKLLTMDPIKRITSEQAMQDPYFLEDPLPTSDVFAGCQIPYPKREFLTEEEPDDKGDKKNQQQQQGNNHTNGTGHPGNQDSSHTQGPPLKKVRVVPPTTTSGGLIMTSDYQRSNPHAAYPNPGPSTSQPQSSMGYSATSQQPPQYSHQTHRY

[3] = target: T1, Apoptotic protease-activating factor 1 (Homo sapiens, UniProt O14727); assay: SAR analysis of small molecule Activators of Apaf-1 in a Fluorescent assay.; format: functional; settings: read-out: EC50_Mean;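 note: caspase-3 cleavage of fluorogenic Rh110 DEVD substrate downstream of apoptosome activation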
T1 sequence (O14727 whole entry): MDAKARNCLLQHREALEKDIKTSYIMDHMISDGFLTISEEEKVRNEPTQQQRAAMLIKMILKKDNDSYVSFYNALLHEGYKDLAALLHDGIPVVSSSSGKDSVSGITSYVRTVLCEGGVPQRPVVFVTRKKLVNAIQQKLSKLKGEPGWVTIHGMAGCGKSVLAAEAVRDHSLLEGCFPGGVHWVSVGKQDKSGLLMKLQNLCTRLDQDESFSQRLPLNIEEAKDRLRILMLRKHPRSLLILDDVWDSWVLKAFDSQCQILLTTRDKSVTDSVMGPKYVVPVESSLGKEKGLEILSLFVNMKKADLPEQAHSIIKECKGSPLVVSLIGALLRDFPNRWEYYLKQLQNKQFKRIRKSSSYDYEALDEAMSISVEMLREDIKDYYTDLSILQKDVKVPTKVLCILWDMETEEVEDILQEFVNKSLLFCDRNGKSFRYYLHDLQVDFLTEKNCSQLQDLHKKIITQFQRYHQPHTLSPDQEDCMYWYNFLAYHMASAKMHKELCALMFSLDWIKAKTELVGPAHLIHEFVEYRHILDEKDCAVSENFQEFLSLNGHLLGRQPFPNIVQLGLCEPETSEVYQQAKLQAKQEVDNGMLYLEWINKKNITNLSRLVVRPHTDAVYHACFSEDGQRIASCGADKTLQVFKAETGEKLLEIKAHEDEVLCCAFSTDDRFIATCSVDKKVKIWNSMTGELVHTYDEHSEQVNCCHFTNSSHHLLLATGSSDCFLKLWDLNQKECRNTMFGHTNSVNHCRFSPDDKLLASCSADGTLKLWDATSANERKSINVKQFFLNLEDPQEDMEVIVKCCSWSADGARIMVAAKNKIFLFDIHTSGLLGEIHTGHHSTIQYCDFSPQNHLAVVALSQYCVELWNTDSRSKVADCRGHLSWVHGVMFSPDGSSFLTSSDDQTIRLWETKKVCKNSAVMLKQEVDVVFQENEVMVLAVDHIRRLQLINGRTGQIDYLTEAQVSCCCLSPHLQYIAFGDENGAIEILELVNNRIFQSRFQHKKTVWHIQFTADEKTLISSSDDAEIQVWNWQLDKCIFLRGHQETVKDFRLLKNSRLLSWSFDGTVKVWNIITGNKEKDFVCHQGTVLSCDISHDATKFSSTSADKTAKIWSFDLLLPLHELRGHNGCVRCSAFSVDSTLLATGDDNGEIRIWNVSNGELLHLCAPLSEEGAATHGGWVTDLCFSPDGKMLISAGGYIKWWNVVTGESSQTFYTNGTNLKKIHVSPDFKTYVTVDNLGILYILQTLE

[4] = inhibitors of firefly luciferase expression or activity, dose response, H4 neuroglioma cells, luminescence (AID 1990); format: functional, cell-based
[5] = luciferase reporter signal reduction – luminescence, H4-C neuroglioblastoma cells, dose response (AID 2458); format: functional, cell-based;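 note: H4 neuroglioblastoma cells stably carrying a luciferase reporter gene fusion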
cells = format: functional, cell-based
[6] = inhibitors of SNCA 5'UTR-driven reporter translation, confirmation, H4 neuroglioma cells, luminescence (AID 1988); format: functional, cell-based
[7] = cytotoxicity in HPDE-C7 cells, cell-based, fluorescence, HTS (AID 430); format: functional; settings: Homo sapiens
[8] = cytotoxicity in KRAS-transformed pancreatic duct cells, primary screen, cell-based, fluorescence, HTS (AID 431); format: functional; settings: Homo sapiens;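 note: cell line used: HPDE-C7K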
[9] = inhibitors of SNCA 5'UTR-driven translation, confirmation, luminescence, H4 neuroglioblastoma cells, dose confirmation (AID 2454); format: functional, cell-based;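 note: H4 neuroglioblastoma cells carrying an alpha-synuclein 5'UTR luciferase reporter; potency for inhibition of the luciferase signal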
[10] = target: T2, High affinity choline transporter 1 (Homo sapiens, UniProt Q9GZV3); assay: CHT inhibitors, dose response, cell-based, 5-point CRC, membrane potential dye (AID 504840); format: functional
T2 sequence (Q9GZV3 whole entry): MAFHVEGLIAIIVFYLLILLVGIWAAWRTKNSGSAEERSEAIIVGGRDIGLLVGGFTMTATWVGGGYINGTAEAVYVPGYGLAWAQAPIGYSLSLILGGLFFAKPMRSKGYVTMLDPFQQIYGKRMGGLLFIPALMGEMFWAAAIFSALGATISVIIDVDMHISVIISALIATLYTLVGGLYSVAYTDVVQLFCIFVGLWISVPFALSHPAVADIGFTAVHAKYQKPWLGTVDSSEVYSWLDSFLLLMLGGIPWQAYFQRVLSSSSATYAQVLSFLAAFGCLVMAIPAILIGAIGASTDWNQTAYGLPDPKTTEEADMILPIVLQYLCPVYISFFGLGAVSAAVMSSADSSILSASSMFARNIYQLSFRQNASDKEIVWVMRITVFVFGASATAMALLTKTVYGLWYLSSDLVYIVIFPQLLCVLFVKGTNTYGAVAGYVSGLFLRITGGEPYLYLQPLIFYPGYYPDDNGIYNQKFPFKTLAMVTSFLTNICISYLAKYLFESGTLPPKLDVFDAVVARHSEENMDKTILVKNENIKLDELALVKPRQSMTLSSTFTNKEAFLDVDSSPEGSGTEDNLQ

[11] = target: T2, High affinity choline transporter 1; assay: CHT inhibitors, dose response, cell-based, 10-point CRC, membrane potential dye (AID 588401); format: functional;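 note: membrane potential dye fluorescence of choline-evoked depolarization via CHT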
[12] = target: T3, RNA-binding protein pos-1 (Caenorhabditis elegans, UniProt G5EF15); assay: inhibitors of POS-1/mex-3 RNA binding, dose response, biochemical, fluorescence polarization (AID 1964);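 note: purified POS-1 fused to maltose binding protein made in E. coli; potency of compounds blocking POS-1 binding to fluorescent RNA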
T3 sequence (G5EF15 whole entry): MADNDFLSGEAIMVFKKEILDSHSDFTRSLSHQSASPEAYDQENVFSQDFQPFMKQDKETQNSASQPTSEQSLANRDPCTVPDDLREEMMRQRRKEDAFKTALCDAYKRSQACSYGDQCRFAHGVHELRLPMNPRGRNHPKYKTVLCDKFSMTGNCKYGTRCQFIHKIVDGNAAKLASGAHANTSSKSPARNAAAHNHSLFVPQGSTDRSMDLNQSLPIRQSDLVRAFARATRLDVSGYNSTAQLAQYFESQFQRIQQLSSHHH

[13] = target: T4, Zinc finger protein mex-5 (Caenorhabditis elegans, UniProt Q9XUB2); assay: MEX-5/TCR-2 RNA interaction inhibitors, dose response, biochemical, C. elegans, fluorescence polarization (AID 1960)
T4 sequence (Q9XUB2 whole entry): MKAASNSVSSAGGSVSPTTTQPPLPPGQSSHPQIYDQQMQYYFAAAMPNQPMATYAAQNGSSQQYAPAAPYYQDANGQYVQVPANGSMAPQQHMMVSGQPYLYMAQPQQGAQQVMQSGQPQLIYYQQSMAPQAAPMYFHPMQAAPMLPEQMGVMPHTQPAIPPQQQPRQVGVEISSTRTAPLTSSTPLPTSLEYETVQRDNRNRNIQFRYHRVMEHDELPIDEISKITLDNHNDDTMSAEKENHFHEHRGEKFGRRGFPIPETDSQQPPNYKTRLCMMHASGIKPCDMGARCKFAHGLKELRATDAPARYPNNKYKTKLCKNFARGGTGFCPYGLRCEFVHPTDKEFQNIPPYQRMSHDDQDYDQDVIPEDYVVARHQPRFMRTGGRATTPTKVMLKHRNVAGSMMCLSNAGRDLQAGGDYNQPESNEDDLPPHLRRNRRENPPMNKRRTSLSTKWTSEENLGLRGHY

[14] = target: T5, Mannose-6-phosphate isomerase (Homo sapiens, UniProt P34949); assay: human PMI inhibitors, high substrate, primary screen, biochemical, fluorescence intensity, high mannose 6-phosphate (AID 1220)
T5 sequence (P34949 whole entry): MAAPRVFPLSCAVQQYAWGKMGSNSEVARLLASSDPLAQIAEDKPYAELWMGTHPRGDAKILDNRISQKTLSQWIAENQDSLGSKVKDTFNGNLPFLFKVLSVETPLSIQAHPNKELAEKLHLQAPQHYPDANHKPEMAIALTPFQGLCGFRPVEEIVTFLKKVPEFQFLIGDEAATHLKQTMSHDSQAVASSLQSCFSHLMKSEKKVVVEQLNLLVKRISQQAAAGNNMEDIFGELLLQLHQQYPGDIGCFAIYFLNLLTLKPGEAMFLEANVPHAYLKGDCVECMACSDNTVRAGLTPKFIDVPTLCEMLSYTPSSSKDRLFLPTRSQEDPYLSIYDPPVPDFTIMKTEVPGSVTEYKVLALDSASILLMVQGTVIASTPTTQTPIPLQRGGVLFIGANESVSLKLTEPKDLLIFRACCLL

[15] = target: Protein disulfide-isomerase (Homo sapiens, UniProt P07237); assay: PDI inhibitors, insulin aggregation turbidity, dose response, biochemical, absorbance, cherry-picked samples (AID 602350); format: functional
Protein disulfide-isomerase, sequence (P07237 whole entry): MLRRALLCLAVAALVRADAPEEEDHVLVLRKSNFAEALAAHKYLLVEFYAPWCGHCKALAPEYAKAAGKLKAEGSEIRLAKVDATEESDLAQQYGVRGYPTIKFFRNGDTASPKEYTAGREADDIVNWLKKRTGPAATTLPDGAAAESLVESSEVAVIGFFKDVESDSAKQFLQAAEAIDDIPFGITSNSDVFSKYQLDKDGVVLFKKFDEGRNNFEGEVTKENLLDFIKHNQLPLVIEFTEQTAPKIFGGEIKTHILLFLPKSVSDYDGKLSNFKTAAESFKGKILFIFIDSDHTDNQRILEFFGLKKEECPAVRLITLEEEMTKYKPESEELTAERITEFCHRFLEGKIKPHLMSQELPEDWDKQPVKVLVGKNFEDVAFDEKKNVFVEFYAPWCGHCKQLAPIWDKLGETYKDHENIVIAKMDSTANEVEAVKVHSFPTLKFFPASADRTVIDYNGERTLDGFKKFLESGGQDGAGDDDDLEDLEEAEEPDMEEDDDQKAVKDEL

[16] = target: T6, RNA-editing ligase 1, mitochondrial (Trypanosoma brucei brucei, UniProt P86926); assay: TbREL1 ligase inhibitors, dose response, biochemical, fluorescence, Trypanosoma brucei (AID 1117295); format: functional
T6 sequence (P86926 whole entry): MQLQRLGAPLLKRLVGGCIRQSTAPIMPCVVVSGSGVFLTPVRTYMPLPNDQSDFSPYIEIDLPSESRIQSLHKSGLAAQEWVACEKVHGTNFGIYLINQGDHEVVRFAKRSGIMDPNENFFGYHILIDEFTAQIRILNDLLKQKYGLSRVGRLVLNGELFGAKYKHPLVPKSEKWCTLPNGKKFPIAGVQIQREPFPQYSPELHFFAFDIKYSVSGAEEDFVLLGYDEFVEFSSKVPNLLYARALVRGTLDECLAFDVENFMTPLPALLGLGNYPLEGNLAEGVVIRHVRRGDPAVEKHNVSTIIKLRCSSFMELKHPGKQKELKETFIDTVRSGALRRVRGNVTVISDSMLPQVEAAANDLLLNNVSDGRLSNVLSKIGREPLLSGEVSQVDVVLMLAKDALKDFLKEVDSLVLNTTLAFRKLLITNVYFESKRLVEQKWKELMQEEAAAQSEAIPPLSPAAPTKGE

Tyrosine-protein kinase receptor TYRO3, sequence (Q06418 whole entry): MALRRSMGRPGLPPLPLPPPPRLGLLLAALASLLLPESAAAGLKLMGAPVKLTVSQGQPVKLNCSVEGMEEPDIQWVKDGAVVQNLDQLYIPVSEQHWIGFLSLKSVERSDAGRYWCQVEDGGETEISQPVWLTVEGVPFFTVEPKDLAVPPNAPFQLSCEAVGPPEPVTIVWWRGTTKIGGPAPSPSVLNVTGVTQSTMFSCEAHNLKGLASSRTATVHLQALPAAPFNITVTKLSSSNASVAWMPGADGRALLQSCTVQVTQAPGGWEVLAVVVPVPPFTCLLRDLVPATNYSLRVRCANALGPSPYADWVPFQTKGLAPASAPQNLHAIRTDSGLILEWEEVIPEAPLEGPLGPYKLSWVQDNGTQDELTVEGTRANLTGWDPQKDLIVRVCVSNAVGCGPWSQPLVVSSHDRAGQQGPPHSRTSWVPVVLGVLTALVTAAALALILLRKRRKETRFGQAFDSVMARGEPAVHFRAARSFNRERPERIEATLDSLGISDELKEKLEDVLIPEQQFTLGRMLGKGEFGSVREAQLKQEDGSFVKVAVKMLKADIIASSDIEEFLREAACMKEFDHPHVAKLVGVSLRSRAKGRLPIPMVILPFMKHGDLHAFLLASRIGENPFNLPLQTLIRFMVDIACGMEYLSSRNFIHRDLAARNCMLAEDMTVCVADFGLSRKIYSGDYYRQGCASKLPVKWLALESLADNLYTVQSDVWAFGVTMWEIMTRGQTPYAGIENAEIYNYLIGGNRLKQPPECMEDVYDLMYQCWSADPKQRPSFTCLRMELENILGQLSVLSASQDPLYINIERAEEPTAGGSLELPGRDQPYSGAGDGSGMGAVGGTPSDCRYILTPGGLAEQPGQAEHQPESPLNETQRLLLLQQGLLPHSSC

For `NC(=O)CCN1CCN(C2Cc3cc(Cl)ccc3Sc3cc(F)ccc32)CC1` (configuration not stated), the Ki [1] was 1580 nM (active) and the Ki [2] was 1580 nM (active).
For `Cc1ccc(N2C(=O)CC3(CC(c4ccccc4Cl)=NO3)C2=O)cc1` (configuration not stated), the EC50 [3] was > 100000 nM (inactive).
In the case of `COc1ccc(C2=Nn3c(nnc3-c3ccccc3OC)SC2)cc1OC`, the EC50 [4] is reported as < 100 nM (active), the EC50 [5] is reported as 624 nM (active) and the EC50 (cells) is reported as 494 nM (active). For the same compound, the EC50 [6] was < 100 nM (active), the EC50 [7] was 700 nM (active) and the EC50 [8] was 300 nM (active). For the same compound, the EC50 [9] was 551 nM (active), the IC50 [10] was 1150 nM (active) and the IC50 [11] was 4220 nM (active).
With `C[C@@H]1O[C@@H](Oc2c(-c3cc(O)c(O)c(O)c3)oc3cc(O)cc(O)c3c2=O)[C@H](O)[C@H](O)[C@H]1O` the EC50 [12] was 15800 nM (active), the EC50 [13] was 14000 nM (active) and the IC50 [14] was 31000 nM (active). The AC50 [15] was 9800 nM (active) and the IC50 [16] was 51400 nM (inactive).
